Measured values reported in article PMC7105311, “Structure and function of Bs164 β-mannosidase from Bacteroides salyersiae the founding member of glycoside hydrolase family GH164” (The Journal of Biological Chemistry, 2019).
Read-outs that look alike come from different tables or passages of the source.

Target: T1, Bs164 (Bacteroides salyersiae, UniProt I9SUA3)
T1 construct: gene HMPREF1071_03408; tag cut by 3C protease for kinetics, His6-tagged for crystals
T1 sequence (I9SUA3 22-673): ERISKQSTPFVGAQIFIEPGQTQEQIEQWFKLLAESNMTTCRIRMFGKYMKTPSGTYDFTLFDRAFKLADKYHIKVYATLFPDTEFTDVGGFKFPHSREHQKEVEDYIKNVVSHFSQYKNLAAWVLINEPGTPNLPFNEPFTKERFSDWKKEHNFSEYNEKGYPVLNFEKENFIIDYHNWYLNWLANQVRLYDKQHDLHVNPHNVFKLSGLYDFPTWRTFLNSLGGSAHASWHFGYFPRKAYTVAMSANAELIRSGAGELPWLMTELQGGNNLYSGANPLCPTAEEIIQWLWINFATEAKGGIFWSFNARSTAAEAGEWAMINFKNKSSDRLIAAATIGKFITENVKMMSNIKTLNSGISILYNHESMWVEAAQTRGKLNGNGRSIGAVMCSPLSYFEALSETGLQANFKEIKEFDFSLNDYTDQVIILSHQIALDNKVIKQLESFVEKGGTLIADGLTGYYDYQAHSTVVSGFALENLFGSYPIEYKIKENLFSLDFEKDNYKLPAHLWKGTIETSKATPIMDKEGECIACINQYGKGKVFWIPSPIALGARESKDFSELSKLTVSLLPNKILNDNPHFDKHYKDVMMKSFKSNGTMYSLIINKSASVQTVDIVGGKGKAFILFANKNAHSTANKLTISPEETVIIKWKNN
Test: inhibition of pNP β-Man hydrolysis, absorbance, competitive model fit
Assay type: biochemical
Source text: inhibition of pNP β-Man hydrolysis, absorbance, competitive model fit on Bs164 | Mannoimidazole and noeuromycin act as competitive inhibitors of Bs164 with inhibition constants (Ki)

Row | Compound | Ki | Ki (competitive, substrate pNP β-Man, 80 mM MES pH 5.5, 160 mM NaCl, 25 °C, crystal structure 2.06 Å, -1 subsite)
1 | OC[C@@H]1[C@@H](O)[C@H](O)[C@H](O)c2nccn21 [mannoimidazole] | 470 ± 60 µM | 
2 | OC[C@H]1CN[C@@H](O)[C@@H](O)[C@@H]1O [noeuromycin] |  | 0.34 ± 0.04 µM
